We go through 25 molecules from patent US6512000B1, “Aminocarbonyl-substituted benzimidazoles having tryptase-inhibitory activity” (Boehringer Ingelheim Pharma KG, priority 1999, dated 2003).

The test addresses T1, rh beta tryptase (Homo sapiens, UniProt P20231).
T1 construct: purchased Promega
The experiment in a line: Tryptase inhibition test (cleavage of N-p-tosyl-Gly-Pro-Lys-para-nitroaniline, p-nitroaniline measured at 405 nm). Type of test: biochemical. The following applies: pH 7.4, 37° C.; for IC50: concentration at which 50% of the tryptase enzyme activity is inhibited, substrate 0.6 mM; for inhibition at 10 µM / % Inhibition (10 μM): inhibition of rh beta tryptase at 10 μM test substance, substrate N-p-tosyl-Gly-Pro-Lys-para-nitroaniline 0.6 mM, 5 minutes. The method, then:
The compounds according to the invention are characterised by their tryptase-inhibiting activity. This ability to inhibit tryptase was investigated using the test described below.
The measurement is carried out in Tris HCl buffer (100 mM), which additionally contains calcium (5 mM) and heparin ([…]), at pH 7.4. The standard used is rh beta tryptase which may be obtained commercially from Promega, for example. The substrate used is N-p-tosyl-Gly-Pro-Lys-para-nitroaniline in a concentration of 0.6 mM. The substrate is digested with tryptase to form p-nitroaniline which can be measured at 405 nm. Usually, an incubation period of 5 minutes and an incubation temperature of 37° C. are chosen. The enzyme activity used is 0.91 U/ml. The measurements are carried out in an Autoanalyser (Cobas Bio) made by Hofmann LaRoche. The potential inhibitory substances are used in concentrations of 10 μM in the screening, the inhibition of the tryptase being given in percent. The IC50 is determined at over 70% inhibition (concentration at which 50% of the enzyme activity is inhibited). After 5 minutes' pre-incubation of the potential inhibitory substances, the substrate is added to start the reaction, the formation of p-nitroaniline being taken as a measurement of the enzyme activity after 5 minutes, after testing the linearity.
The data obtained after the above test has been carried out (% inhibition) are assembled in Table 25 for the compounds according to the invention. The IC50 values obtained for the compounds according to the invention can be found in Table 26.
Table 26 contains the IC50 binding values obtained for the compounds according to the invention. These were measured as described above.

Structures can show the parent of a compound that is named as a salt.

T1 sequence (P20231 31-275): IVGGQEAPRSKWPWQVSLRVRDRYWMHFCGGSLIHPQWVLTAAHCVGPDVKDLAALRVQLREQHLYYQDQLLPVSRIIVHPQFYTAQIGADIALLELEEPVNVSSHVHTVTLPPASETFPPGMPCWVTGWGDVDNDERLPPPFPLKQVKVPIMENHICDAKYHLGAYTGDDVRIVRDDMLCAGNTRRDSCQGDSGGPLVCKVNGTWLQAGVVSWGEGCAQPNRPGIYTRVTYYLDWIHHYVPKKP

As usually defined, the IC50 is the point on the concentration scale where inhibition reaches its midpoint. Lower therefore signals greater potency in that assay. As a reminder, the inhibition is how much of the control response was suppressed. A low value points to little suppression. Molecule `COc1cccc(CN(CCN)C(=O)c2ccc3c(c2)nc(CCc2ccc(C(=N)N)cc2)n3CC2CC2)c1` [Example 266, 2-[2-(4-amidinophenyl)ethyl]-1-cyclopropylmethyl-benzimidazol-5-yl-carboxylic acid-N-(2-aminoethyl)-N-(3-methoxybenzyl)-amide] returned an IC50 of 641 nM and an inhibition at 10 µM of 61%. `N=C(N)c1ccc(CCc2nc3cc(C(=O)N(Cc4ccc(CN)cc4)Cc4ccc5ccccc5c4)ccc3n2CC2CCCO2)cc1` (stereo not drawn) [Example 242, 2-[2-(4-amidinophenyl)ethyl]-1-(tetrahydrofuran-2-yl-methyl)-benzimidazol-5-yl-carboxylic acid-N-[4-(amino-methyl)-benzyl]-N-(2-naphthylmethyl)-amide] registered an inhibition at 10 µM of 63%. The molecule `CN(Cc1ccc(C(=N)N)cc1)C(=O)c1ccc2c(c1)nc(CCc1ccc(C(=N)N)cc1)n2C` [Example 4, 2-[2-(4-Amidinophenyl)-ethyl]-1-methyl-benzimidazol-5-yl-carboxylic Acid-N-(4-amidino-benzyl)-N-methyl-amide-trihydrochloride] returned an IC50 of 81 nM. The same measure, in the same setting: to `CCOCCCn1c(CCc2ccc(C(=N)N)cc2)nc2cc(C(=O)N(Cc3ccccc3)Cc3ccc(CN)cc3)ccc21` [Example 102, 2-[2-(4-amidinophenyl)ethyl]-1-(3-ethoxypropyl)-benzimidazol-5-yl-carboxylic acid-N-[4-(amino-methyl)-benzyl]-N-benzyl-amide] belongs 369 nM.

As for `COc1cccc(CN(Cc2ccc(CN)cc2)C(=O)c2ccc3c(c2)nc(CCc2ccc(C(=N)N)cc2)n3CCCNC(=O)Cc2ccccc2)c1` [Example 72, 2-[2-(4-amidinophenyl)ethyl]-1-[3-(benzylcarbonylamino)-propyl]-benzimidazol-5-yl-carboxylic acid-N-[4-(amino-methyl)-benzyl]-N-(3-methoxybenzyl)-amide], 10 µM produced 69% inhibition. Regarding `N=C(N)c1ccc(CCc2nc3cc(C(=O)N(Cc4ccc(CN)cc4)CC4CCCCC4)ccc3n2CC2CC2)cc1` [Example 154, 2-[2-(4-amidinophenyl)ethyl]-1-cyclopropylmethyl-benzimidazol-5-yl-carboxylic acid-N-[4-(amino-methyl)-benzyl]-N-cyclohexylmethyl-amide], the inhibition at 10 µM stood at 63%. As to “2-[2-(4-amidinophenyl)ethyl]-1-{3-[4-(2-methylphenyl)-piperazin-1-yl]-propyl}-benzimidazol-5-yl-carboxylic acid-N-[4-(amino-methyl)-benzyl]-N-(2-pyridyl)-amide [Example 128]”, the “% Inhibition (10 μM)” value came to 51%.

With `Cn1c(CCc2ccc(C(=N)N)cc2)nc2cc(C(=O)N3CCN(c4ccccn4)CC3)ccc21` [Example 52, 2-[2-(4-Amidinophenyl)-ethyl]-1-methyl-benzimidazol-5-yl-carboxylic Acid-[N′-(2-pyridyl)-piperazide]], the IC50 turned out to be 231 nM. That is a sub-micromolar value. Still for that read-out and setting: to `Cn1c(CCc2ccc(C(=N)N)cc2)nc2cc(C(=O)N(CCNCc3ccccc3)C3CCCCC3)ccc21` [Example 36, 2-[2-(4-Amidinophenyl)-ethyl]-1-methyl-benzimidazol-5-yl-carboxylic Acid-[N-(2-(N′-benzylamino)-ethyl)-N-cyclohexyl-amide]-dihydrochloride] belongs 67 nM.

Take “2-[2-(4-amidinophenyl)ethyl]-1-[2-(4-chlorophenyl)ethyl]-benzimidazol-5-yl-carboxylic acid-N-[4-(amino-methyl)-benzyl]-N-(3-pyridyl)-amide [Example 140]”: the “% Inhibition (10 μM)” value is 63%.

Molecule `N=C(N)c1ccc(CCc2nc3cc(C(=O)N(CCCc4ccccc4)Cc4ccc(CN)cc4)ccc3n2CCCNC(=O)Cc2ccccc2)cc1` [Example 168, 2-[2-(4-amidinophenyl)ethyl]-1-[3-(benzylcarbonylamino)-propyl]-benzimidazol-5-yl-carboxylic acid-N-[4-(amino-methyl)-benzyl]-N-(3-phenylpropyl)-amide] gave an inhibition at 10 µM of 66%. The molecule `COC(=O)c1ccc(CN(Cc2ccc(CN)cc2)C(=O)c2ccc3c(c2)nc(CCc2ccc(C(=N)N)cc2)n3CCc2ccc(Cl)cc2)cc1` [Example 444, 2-[2-(4-amidinophenyl)ethyl]-1-[2-(4-chlorophenyl)ethyl]-benzimidazol-5-yl-carboxylic acid-N-[4-(amino-methyl)-benzyl]-N-[4-(methoxycarbonyl)-benzyl]-amide] came in with an inhibition at 10 µM of 53%. “2-[2-(4-amidinophenyl)ethyl]-1-(3-ethoxypropyl)-benzimidazol-5-yl-carboxylic acid-N-[4-(amino-methyl)-benzyl]-N-(2-pyridyl)-amide [Example 118]”: the IC50 stood at 304 nM and the “% Inhibition (10 μM)” value came to 71%. In the case of “2-[2-(4-amidinophenyl)ethyl]-1-(3-di-n-butylaminopropyl)-benzimidazol-5-yl-carboxylic acid-N-[4-(amino-methyl)-benzyl]-N-(3-pyridyl)-amide [Example 135]”, the “% Inhibition (10 μM)” value was determined as 64%. `Cn1c(CCc2ccc(C(=N)N)cc2)nc2cc(C(=O)N(CCC(=N)N)Cc3cccnc3)ccc21` [Example 10, 2-[2-(4-Amidinophenyl)-ethyl]-1-methyl-benzimidazol-5-yl-carboxylic Acid-N-(2-amidinoethyl)-N-(3-pyridylmethyl)-amide-dihydrochloride] gave an IC50 of 316 nM. This lies in the sub-micromolar range. Molecule `N=C(N)c1ccc(CCc2nc3cc(C(=O)N(Cc4ccc(CN)cc4)Cc4cccc(C(F)(F)F)c4)ccc3n2CCCNC(=O)Cc2ccccc2)cc1` [Example 200, 2-[2-(4-amidinophenyl)ethyl]-1-[3-(benzylcarbonylamino)-propyl]-benzimidazol-5-yl-carboxylic acid-N-[4-(amino-methyl)-benzyl]-N-(3-trifluoromethylbenzyl)-amide] came in with an inhibition at 10 µM of 69%.

As for “2-[2-(4-amidinophenyl)ethyl]-1-(tetrahydrofuran-2-yl-methyl)-benzimidazol-5-yl-carboxylic acid-N-[4-(amino-methyl)-benzyl]-N-(3-pyridyl)-amide [Example 146]”, the “% Inhibition (10 μM)” value was 65%. `N=C(N)c1ccc(CCc2nc3cc(C(=O)N(Cc4ccccc4)Cc4ccc(CN)cc4)ccc3n2CCCNC(=O)Cc2ccccc2)cc1` [Example 104, 2-[2-(4-amidinophenyl)ethyl]-1-[3-(benzylcarbonylamino)-propyl]-benzimidazol-5-yl-carboxylic acid-N-[4-(amino-methyl)-benzyl]-N-benzyl-amide] displayed an inhibition at 10 µM of 74%. The molecule `Cn1c(CCc2ccc(C(=N)N)cc2)nc2cc(C(=O)N(CCCc3ccccc3)Cc3ccc(C(=N)N)cc3)ccc21` [Example 16, 2-[2-(4-Amidinophenyl)-ethyl]-1-methyl-benzimidazol-5-yl-carboxylic Acid-N-(4-amidinobenzyl)-N-(3-phenylpropyl)-amide-dihydrochloride] registered an IC50 of 154 nM. As to `COc1cccc(CN(CCN)C(=O)c2ccc3c(c2)nc(CCc2ccc(C(=N)N)cc2)n3CC2CCCO2)c1` (stereo not drawn) [Example 274, 2-[2-(4-amidinophenyl)ethyl]-1-(tetrahydrofuran-2-yl-methyl)-benzimidazol-5-yl-carboxylic acid-N-(2-aminoethyl)-N-(3-methoxybenzyl)-amide], at 10 µM the inhibition was 57%. As to `Cn1c(CCc2ccc(CN)cc2)nc2cc(C(=O)N(CCCc3ccccc3)Cc3ccc(CN)cc3)ccc21` [Example 42, 2-[2-(4-aminomethyl-phenyl)-ethyl]-1-methyl-benzimidazol-5-yl-carboxylic Acid-N-(4-aminomethyl-benzyl)-N-(3-phenylpropyl)-amide-dihydrochloride], the IC50 worked out at 836 nM. `Cn1c(CCc2ccc(C(=N)N)cc2)nc2cc(C(=O)N3CCN(Cc4ccccc4)CC3)ccc21` [Example 55, 2-[2-(4-Amidinophenyl)-ethyl]-1-methyl-benzimidazol-5-yl-carboxylic Acid-[N′-benzyl-piperazide]] showed an IC50 of 346 nM. Against the preceding molecule, the IC50 is about 2.4-fold lower. The same measure, in the same setting: to `Cn1c(CCc2ccc(C(=N)N)cc2)nc2cc(C(=O)NCCCc3ccccc3)ccc21` [Example 12, 2-[2-(4-Amidinophenyl)-ethyl]-1-methyl-benzimidazol-5-yl-carboxylic Acid-N-(3-phenylpropyl)-amide-hydrochloride] belongs 479 nM. Regarding `CCCCN(CCCC)CCCn1c(CCc2ccc(C(=N)N)cc2)nc2cc(C(=O)N(Cc3ccc(Cl)cc3)Cc3ccc(CN)cc3)ccc21` [Example 183, 2-[2-(4-amidinophenyl)ethyl]-1-(3-di-n-butylaminopropyl)-benzimidazol-5-yl-carboxylic acid-N-[4-(amino-methyl)-benzyl]-N-(4 chlorbenzyl)-amide], the “% Inhibition (10 μM)” value came to 56%.

In the case of `Cn1c(CCc2ccc(CN)cc2)nc2cc(C(=O)NCCC(c3ccccc3)c3ccccc3)ccc21` [Example 40, 2-[2-(4-Aminomethyl-phenyl)-ethyl]-1-methyl-benzimidazol-5-yl-carboxylic Acid-N-(3,3-diphenylpropyl)-amide-dihydrochloride], the IC50 was 192 nM.
